Test results reported in patent publication US9493419B2, “Quinoline derivatives as anti-cancer agents” (The Hong Kong Polytechnic University, priority 2007, dated 2016).
≈ marks a conversion by molar mass, not a printed value.

Assays:
Hep3B = test: MTS activity assay, Hep3B; format: cell-based, human; details: for viability at 50 µg/mL: Homo sapiens, Hep3B, read-out: Relative MTS Activity at 50 μg/mL Concentration, Hep3B
From the text: (§1) All the assays were done in triplicates.

ESCC cell line HKESC-4 = test: MTS activity assay, HKESC-4; format: cell-based; details: for Relative MTS Activity at 50 μg/mL Concentration, HKESC-4: 48 hours, relative to control
From the text: as §1

[1] = test system: five carcinoma cell lines (Hep3B, A549, HKESC-1, HKESC-4 and KYSE150); details: against the cancer cell lines, FIG. 1
From the text: (§3) Lung carcinoma cell line (A549) and hepatocellular carcinoma (HCC) cell line (Hep3B) were obtained from American Type of Culture Collection (ATCC). Esophageal squamous cell carcinoma cell line KYSE150 was purchased from DSMZ (Braunschweig, Germany) [13]. […] Hep3B HCC and A549 lung carcinoma cell lines were maintained in DMEM and F12-K medium respectively with 10% of heat inactivated fetal bovine serum (Hyclone) together with antibiotics involving penicillin and streptomycin. All the ESCC cell lines (KYSE150, HKESC-1 and HKESC-4) were maintained in MEM supplemented with 10% of heat inactivated fetal bovine serum together with antibiotics involving penicillin and streptomycin. Cells were allowed to grow in a humidified cell culture incubator keeping at 5% carbon dioxide.
(§4) Briefly, 1×10^4 carcinoma cells were seeded at day 0. After 24 hours, medium was changed and various compounds were added at different concentrations. Cisplatin (CDDP), a commonly used anti-cancer agent, was also used as the positive control. After 48 hours of incubation, the medium was removed and MTS/PMS solution was added and they were incubated further for exactly 30 minutes. Afterwards, optical absorbance was determined at 490 nm according to the user manual (Promega). All the assays were done in triplicates.

[2] = test system: five carcinoma cell lines (Hep3B, A549, HKESC-1, HKESC-4 and KYSE150); test: cells; details: read-out: MTS50 (50% of MTS reduction ability by the chemical treated cell as compared with control), against the cancer cell lines, FIG. 1
From the text: as §3, §4

[3] = test system: Esophageal squamous cell carcinoma cell line HKESC-1; test: MTS activity assay, HKESC-1; format: cell-based; details: for Relative MTS Activity at 50 μg/mL Concentration, HKESC-1: 48 hours, relative to control
From the text: as §1

[4] = test system: Esophageal squamous cell carcinoma cell line KYSE150; test: MTS activity assay, KYSE150; format: cell-based, human; details: for Relative MTS Activity at 50 μg/mL Concentration, KYSE150: 48 hours, relative to control
From the text: as §1

[5] = Histological examination of organs of treated mice; format: in vivo; details: mice after sacrifice; 10 mg/kg i.p. daily for 19 days
Description: (§2) Each group of three mice received intra-peritoneal (i.p.) injection daily with 10 mg/kg of optically pure isomers with 6% polyethylene glycol (PEG Mn 8000) for 19 days. The control group of two mice was injected daily with 6% PEG only. Tumor dimensions were measured regularly with calipers, and tumor volumes were estimated using two-dimensional measurements of length and width and calculated with the formula [l×(w)^2]×0.52 (l is length and w is width) as previously described.

KYSE150 xenograft tumors = test: Subcutaneous KYSE150 xenograft tumors in nude mice; format: in vivo; details: 10 mg/kg/day i.p. for 19 days, compared with negative control (6% PEG), FIG. 2
Description: Optically pure compound (−)-2b (ee up 99%) was tested for their anti-cancer effects against the subcutaneous xenograft tumors of human esophageal cancer derived from the cell line KYSE150, which was purchased from DSMZ (Braunschweig, Germany) and was cultured in a known way as previously described (for details see reference number 17).
as §2

[6] = test system: Human liver cancer cell line Hep3B; test: Preliminary anti-cancer screening, One Step ATP lite assay; format: cell-based; design: key to Relative activity to untreated control: “+” (more cell death); “−” (no cytotoxicity); details: 48 hours; for Relative activity to untreated control: Hep3B, 50 ug/ml
Description: Human liver cancer cell line Hep3B was used for purpose of preliminary anti-cancer screening for the selected alkaloids. Cancer cells (1×10^4 per well) seeded in the 96 wells microtitre plates for 24 hours were prepared for the alkaloid screening. The selected compounds were prepared as a stock concentration of 50 mg/ml in dimethylsulfoxide (DMSO) and were added at a concentration of 50 μg/ml and incubated for a further of 48 hours. Untreated control received either total complete medium or 0.1% of DMSO. Cisplatin (CDDP, also at 50 μg/ml) was the positive reference which induced more than 95% in Hep3B. Afterwards, the evaluation of possible antiproliferative or cytotoxicity of those alkaloids was examined by the One Step ATP lite assay purchased from PerkinElmer according to the technical manual provided. […] The relative MTS activities were compared with the untreated control and illustrated using symbols “+” (more cell death) and “−” (no cytotoxicity).

[7] = test system: Lung carcinoma cell line (A549); test: MTS activity assay, A549; format: cell-based; details: 48 hours, relative to control; for viability at 50 µg/mL: Homo sapiens, A549, 50 μg/mL, read-out: Relative MTS Activity at 50 μg/mL Concentration, A549
From the text: as §1

[8] = 50 μg/mL, 48 hours, relative to control

SMILES | Relative MTS Activity at 50 μg/mL Concentration, HKESC-4 (ESCC cell line HKESC-4) | Relative MTS Activity at 50 μg/mL Concentration, HKESC-1 [3] | Relative MTS Activity at 50 μg/mL Concentration, KYSE150 [4] | viability at 50 µg/mL [7] | viability at 50 µg/mL (Hep3B; [8]) | also measured
CC1CCc2c(Br)cc(Br)c(O)c2N1 (single isomer, unassigned; (+)) [(+)-2b, 5,7-Dibromo-1,2,3,4-tetrahydro-2-methylquinolin-8-ol] |  |  |  |  |  | cytotoxic activity relative to CDDP (Hep3B; cell line Hep3B, preliminary results): 1.5 fold; cytotoxic activity relative to CDDP (ESCC cell line HKESC-4; cell line HKESC-4, preliminary results): 1.5 fold; MTS50 (50% of MTS reduction ability by the chemical treated cell as compared with control) [1]: ~5 µg/mL; IC50 [2]: 4 to 10 µg/mL (≈ 12.5 to 31.2 µM); cytotoxic activity relative to CDDP ([3]; cell line HKESC-1, preliminary results): 1.5 fold; cytotoxic activity relative to CDDP ([4]; cell line KYSE150, preliminary results): more than 2 fold
CC1CCc2c(Br)cc(Br)c(O)c2N1 (single isomer, unassigned; (-)) [(−)-2b, 5,7-Dibromo-1,2,3,4-tetrahydro-2-methylquinolin-8-ol] |  |  |  |  |  | Histological examination of liver, heart, lung and kidney sections [5]: no observable damage; volume growth of the KYSE150 xenograft tumors (KYSE150 xenograft tumors): effective in suppressing the volume growth; MTS50 (50% of MTS reduction ability by the chemical treated cell as compared with control) [1]: ~5 µg/mL
[NH2][Pt]([NH2])([Cl])[Cl] [CDDP, Cisplatin, reference compound] | 0.158 ± 0.081 | 0.135 ± 0.017 | 0.205 ± 0.032 |  |  | effect induced by positive reference in Hep3B ([6]; 50 μg/ml): more than 95%; Relative MTS Activity at 50 μg/mL Concentration, A549 [7]: 0.216 ± 0.075; Relative MTS Activity at 50 μg/mL Concentration, Hep3B (Hep3B; [8]): 0.116 ± 0.031
CC1CCc2cccc(OCCN3CCCCC3)c2N1 (stereo not drawn) [Compound 8b, 8-(2-(Piperidin-1-yl)ethoxy)-1,2,3,4-tetrahydro-2-methylquinoline] |  |  |  |  |  | Relative activity to untreated control [6]: +
CC1CCc2cccc(OCc3cccc([N+](=O)[O-])c3)c2N1 (stereo not drawn) [Compound 9b, 8-(3-Nitrobenzyloxy)-1,2,3,4-tetrahydro-2-methylquinoline] | 0.698 ± 0.096 | 0.453 ± 0.012 | 0.619 ± 0.025 | 70.6 ± 18.4% | 68.8 ± 2.7% | 
CC1CCc2cccc(OCc3ccc([N+](=O)[O-])cc3)c2N1 (stereo not drawn) [Compound 10b, 8-(4-Nitrobenzyloxy)-1,2,3,4-tetrahydro-2-methylquinoline] | 1.056 ± 0.050 | 1.337 ± 0.145 | 1.097 ± 0.036 | 166 ± 17.3% | 126 ± 3% | 
COc1ccc(COc2cccc3ccc(C)nc23)cc1 [Compound 11a, 8-(4-methoxybenzyloxy)-2-methylquinoline] | 0.488 ± 0.017 | 0.817 ± 0.076 | 0.797 ± 0.083 | 52.7 ± 1.8% | 32 ± 1.7% | 
COc1ccc(COc2cccc3c2NC(C)CC3)cc1 (stereo not drawn) [Compound 11b, 8-(4-Methoxybenzyloxy)-1,2,3,4-tetrahydro-2-methylquinoline] | 0.777 ± 0.019 | 0.917 ± 0.023 | 0.764 ± 0.001 | 75.9 ± 7.9% | 55.4 ± 11.4% | 
COc1cccc(COc2cccc3ccc(C)nc23)c1 [Compound 12a, 8-(3-methoxybenzyloxy)-2-methylquinoline] | 0.794 ± 0.005 | 0.535 ± 0.032 | 0.648 ± 0.013 |  | 20.9 ± 3% | 
COc1cccc(COc2cccc3c2NC(C)CC3)c1 (stereo not drawn) [Compound 12b, 8-(3-Methoxybenzyloxy)-1,2,3,4-tetrahydro-2-methylquinoline] | 0.716 ± 0.022 | 0.682 ± 0.001 | 0.845 ± 0.010 |  | 72.6 ± 6.5% | 
CC1CCc2cccc(OCc3ccc(C#N)cc3)c2N1 (stereo not drawn) [Compound 13b, 4-((1,2,3,4-Tetrahydro-2-methylquinolin-8-yloxy)methyl)benzonitrile] | 0.424 ± 0.062 | 0.754 ± 0.017 | 0.470 ± 0.087 |  | 84.2 ± 2.4% | 
Cc1ccc2cccc(OCc3cccc(-c4ccccc4)c3)c2n1 [Compound 14a, 8-(biphenyl-3-ylmethoxy)-2-methylquinoline] |  |  |  | 24.4 ± 0.3% | 37 ± 21.4% | 
CC1CCc2cccc(OCc3cccc(-c4ccccc4)c3)c2N1 (stereo not drawn) [Compound 14b, 8-(Biphenyl-3-ylmethoxy)-2-methyl-1,2,3,4-tetrahydroquinoline] |  |  |  | 124 ± 6.6% | 51 ± 6.8% | 
Cc1ccc2cccc(OCc3ccc(OC(F)(F)F)cc3)c2n1 [Compound 15a, 8-(4-(trifluoromethoxy)benzyloxy)-2-methylquinoline] |  |  |  | 62.9 ± 8.1% | 77.7 ± 13% | 
CC1CCc2cccc(OCc3ccc(OC(F)(F)F)cc3)c2N1 (stereo not drawn) [Compound 15b, 8-(4-(Trifluoromethoxy)benzyloxy)-1,2,3,4-tetrahydro-2-methylquinoline] |  |  |  | 84 ± 2.9% | 76 ± 9% | 
CC1CCc2cccc(OCc3ccc(F)cc3)c2N1 (stereo not drawn) [Compound 16b, 8-(4-Fluorobenzyloxy)-1,2,3,4-tetrahydro-2-methylquinoline] |  |  |  | 90.8 ± 6.3% | 41.2 ± 1.7% | 
Cc1ccc2cccc(OCc3ccc(C(F)(F)F)cc3)c2n1 [Compound 17a, 8-(4-(trifluoromethyl)benzyloxy)-2-methylquinoline] |  |  |  | 92 ± 4.2% | 87.8 ± 7.3% | 
CC1CCc2cccc(OCc3ccc(C(F)(F)F)cc3)c2N1 (stereo not drawn) [Compound 17b, 8-(4-(Trifluoromethyl)benzyloxy)-1,2,3,4-tetrahydro-2-methylquinoline] |  |  |  | 98.3 ± 0.1% | 73.4 ± 2.4% | 
CC1CCc2cccc(OCc3ccc(Cl)cc3)c2N1 (stereo not drawn) [Compound 18b, 8-(4-Chlorobenzyloxy)-1,2,3,4-tetrahydro-2-methylquinoline] |  |  |  | 109 ± 3.9% | 60.9 ± 4.2% | 
CC(=O)Oc1cccc2c1NC(C)CC2 (stereo not drawn) [Compound 25b, 2-Methyl-1,2,3,4-tetrahydroquinolin-8-yl acetate] |  |  |  |  |  | Relative activity to untreated control [6]: +
CC(=O)Oc1cccc2c1N(C(C)=O)C(C)CC2 (stereo not drawn) [Compound 26b, 1-Acetyl-2-methyl-1,2,3,4-tetrahydroquinolin-8-yl acetate] |  |  |  |  |  | Relative activity to untreated control [6]: +
